Data set [1] in a line: Log D shake flask method (octanol / PBS pH 7.4, HPLC). Type of data set: physicochemical. To be noted: octanol/phosphate-buffered saline (PBS); octanol / PBS pH 7.4, shake flask. The procedure: In order to classify the inventive compounds according to their lipophilicity, Log D values (distribution coefficient) were determined by means of the well-established shake flask method, measuring the partition of a compound between an octanol and phosphate-buffered saline (PBS, pH 7.4) by HPLC.

Data set [2] can be described thus: Caco-2 permeability assay (CacoReady kit). In kind it is in vitro ADME. Conditions: human. The gist of the method:
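Intestinal permeability modelled with kit-supplied Caco-2 barriers, run as the maker specifies; each compound reported as Papp.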

Data set [3] has as its target T1, recombinant human transglutaminase 2 (Homo sapiens, UniProt P21980).
T1 construct: purchased Zedira T022
T1 sequence (P21980 1-687): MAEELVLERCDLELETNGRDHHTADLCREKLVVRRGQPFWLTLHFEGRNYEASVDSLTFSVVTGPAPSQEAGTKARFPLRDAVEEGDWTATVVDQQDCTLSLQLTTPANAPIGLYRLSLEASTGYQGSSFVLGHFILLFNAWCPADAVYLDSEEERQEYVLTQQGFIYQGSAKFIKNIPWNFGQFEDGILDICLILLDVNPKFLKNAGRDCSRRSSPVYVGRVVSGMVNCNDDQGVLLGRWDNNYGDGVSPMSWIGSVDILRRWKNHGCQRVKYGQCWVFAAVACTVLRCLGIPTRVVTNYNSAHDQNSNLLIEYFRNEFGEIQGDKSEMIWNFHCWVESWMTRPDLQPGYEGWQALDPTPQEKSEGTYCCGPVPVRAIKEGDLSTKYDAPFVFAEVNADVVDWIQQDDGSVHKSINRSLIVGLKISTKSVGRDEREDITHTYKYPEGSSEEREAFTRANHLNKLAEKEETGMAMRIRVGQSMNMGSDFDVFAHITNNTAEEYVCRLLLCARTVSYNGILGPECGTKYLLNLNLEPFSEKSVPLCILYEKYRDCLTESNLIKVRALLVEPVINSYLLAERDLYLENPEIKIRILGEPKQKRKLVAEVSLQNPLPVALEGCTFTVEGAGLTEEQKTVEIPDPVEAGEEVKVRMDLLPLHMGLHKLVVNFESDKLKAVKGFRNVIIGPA
Description: Transglutaminase assay (dansylcadaverine incorporation into dimethylcasein, DCC-assay). Type of data set: biochemical. Conditions: recombinant human TG2 10 nM, dansylcadaverine/dimethylcasein, 37° C. The gist of the method: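 IC50 derived from fluorescence slope between 20 and 30 min (λex 330 nm, λem 500 nm, 37 °C), expressed relative to a 2% DMSO control. Reaction: 10 nM recombinant human TG2, 4 μM dimethylcasein, 16.7 μM dansylcadaverine, 10 mM CaCl2 and glutathione, pH 8.0.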

Regarding `CCOC(=O)/C=C/CC[C@H](NC(=O)c1cncn1C)C(=O)Nc1cccn(CC(=O)NC2C3CC4CC(C3)CC2C4)c1=O` (stereo partly drawn) [III-99, (S,E)-ethyl 7-(1-(2-(2-adamantylamino)-2-oxoethyl)-2-oxo-1,2-dihydropyridin-3-ylamino)-6-(1-methyl-1H-imidazole-5-carboxamido)-7-oxohept-2-enoate], the logD in data set [1] fell in the range of 3 to 5. In data set [2], this compound returned a Papp of under 1 ×10⁻⁶ cm/s. In data set [3], the IC50 was in the range of 25 to 250 nM.
`COC(=O)/C=C/CC[C@H](NC(=O)c1coc2ccccc12)C(=O)Nc1cccn(CC(=O)NC2C3CC4CC(C3)CC2C4)c1=O` (stereo partly drawn) [III-106, (S,E)-methyl 6-(benzofuran-3-carboxamido)-7-(1-(2-(2-adamantylamino)-2-oxoethyl)-2-oxo-1,2-dihydropyridin-3-ylamino)-7-oxohept-2-enoate] displayed a logD in data set [1] of 3 to 5. In addition, the Papp in data set [2] was 1 to 10 ×10⁻⁶ cm/s. Besides, the IC50 in data set [3] lay in the range of 25 to 250 nM.
`COC(=O)/C=C/CC[C@H](NC(=O)c1sc(C(F)(F)F)nc1C)C(=O)Nc1cccn(CC(=O)NC23CC4CC(C)(CC(C)(C4)C2)C3)c1=O` [III-123, (S,E)-methyl 7-(1-(2-(3,5-dimethyladamantane-1-amino)-2-oxoethyl)-2-oxo-1,2-dihydropyridin-3-ylamino)-6-(4-methyl-2-(trifluoromethyl)thiazole-5-carboxamido)-7-oxohept-2-enoate] showed a logD in data set [1] of 3 to 5. Besides, the Papp in data set [2] lay within 1 to 10 ×10⁻⁶ cm/s. Also, in data set [3], the IC50 was under 25 nM.
Taken in the same sequence, the figures for `COC(=O)/C=C/CC[C@H](NC(=O)c1cnnn1C)C(=O)Nc1cccn(CC(=O)N[C@@H]2C[C@H]3CC[C@@H]2C3)c1=O` [III-96, (S,E)-methyl 7-(1-(2-((1R,2R,4S)-bicyclo[2.2.1]heptan-2-ylamino)-2-oxoethyl)-2-oxo-1,2-dihydropyridin-3-ylamino)-6-(1-methyl-1H-1,2,3-triazole-5-carboxamido)-7-oxohept-2-enoate] were under 1, 1 to 10 ×10⁻⁶ cm/s and under 25 nM.
Taken in the same sequence, the figures for `COC(=O)/C=C/CC[C@H](NC(=O)c1ccc2occc2c1)C(=O)Nc1cccn(CC(=O)NC2C3CC4CC2CC(NC(C)=O)(C4)C3)c1=O` (stereo partly drawn) [III-165, (S,E)-methyl 6-(benzofuran-5-carboxamido)-7-(1-(2-(1-acetylamino-4-aminoadamantane)-2-oxoethyl)-2-oxo-1,2-dihydropyridin-3-ylamino)-7-oxohept-2-enoate] were 1 to 3, under 1 ×10⁻⁶ cm/s and 25 to 250 nM.
Regarding `COC(=O)/C=C/CC[C@H](NC(=O)c1ccncc1)C(=O)Nc1cccn(CC(=O)NC2C3CC4CC(C3)CC2C4)c1=O` (stereo partly drawn) [III-84, (S,E)-methyl 6-(isonicotinamido)-7-(1-(2-(2-adamantylamino)-2-oxoethyl)-2-oxo-1,2-dihydropyridin-3-ylamino)-7-oxohept-2-enoate], the logD in data set [1] is 3 to 5. In addition, the Papp in data set [2] is under 1 ×10⁻⁶ cm/s. For the same compound, in data set [3], the IC50 is under 25 nM.
Taken in the same sequence, the figures for `COC(=O)/C=C/CC[C@H](NC(=O)c1ncc(OC)o1)C(=O)Nc1cccn(CCC(=O)NC2C3CC4CC(C3)CC2C4)c1=O` (stereo partly drawn) [III-133, (S,E)-methyl 7-(1-(3-(2-adamantylamino)-3-oxopropyl)-2-oxo-1,2-dihydropyridin-3-ylamino)-6-(5-methoxyoxazole-2-carboxamido)-7-oxohept-2-enoate] were 3 to 5, under 1 ×10⁻⁶ cm/s and 250 to 1500 nM.

The values are drawn from patent publication US20240317708A1, “INHIBITORS OF TRANSGLUTAMINASES” (ZEDIRA GMBH, priority 2021, published 2024).
